Laboratory results reported in US20200385489A1, “USING COLIPASE INHIBITORS TO TREAT PANCREATITIS” (Mayo Foundation for Medical Education and Research, priority 2015, published 2020).

What was measured:
adipocytes = test: Isoproterenol induced lipolysis in adipocytes (glycerol release); assay type: cell-based; conditions: Iso 10 μM; inhibitor 50 μM
Procedure: (§1) Adipocytes were stimulated by isoproterenol (Iso 10 μM) or co-cultured with pancreatic acini. The adipose triglyceride lipase (ATGL) inhibitor atglistatin or the pancreatic lipase inhibitor orlistat (50 μM each) was added in some conditions.
Glycerol release was measured as a marker of lipolysis in adipocytes. Isoproterenol induced lipolysis in adipocytes.

[1] = system: Differentiated 3T3-LI adipocytes; test: LDH leakage from PTL-transfected 3T3-LI adipocytes with colipase; assay type: cell-based; conditions: over 8 hours
Procedure: (§2) Differentiated 3T3-LI adipocytes with lipid droplets were transfected with adenovirus expressing pancreatic triglyceride lipase (PTL) to induce lactate dehydrogenase (LDH) leakage or left as unstimulated controls. The medium was replaced with serum free medium alone or with colipase (0.25 mcg/mL). In some wells the lipase inhibitor orlistat (20 micromolar) was added every 2 hours.
LDH leakage into the medium was measured as a marker of cell injury. […] Colipase increased this to 30-40% LDH leakage compared to controls. […] Glycerol release was measure as a marker of lipolysis. […] Colipase increased glycerol release compared to controls. Glycerol release was prevented by the lipase inhibitor orlistat (FIG. 3B).

[2] = system: Differentiated 3T3-LI adipocytes; test: Glycerol release (lipolysis) from PTL-transfected 3T3-LI adipocytes with colipase; assay type: cell-based; conditions: PTL + colipase 0.25 mcg/mL; orlistat 20 micromolar every 2 hours; over 8 hours
Procedure: as §2, with “hours. LDH leakage into the medium was measured as a marker of cell injury. […] Colipase increased this to 30-40% LDH leakage compared to controls. […] Glycerol release was measure as a marker of lipolysis. […] Colipase increased glycerol release compared to controls. Glycerol release was prevented by the lipase inhibitor orlistat (FIG. 3B).” for “hours.”

[3] = system: Differentiated 3T3-LI adipocytes; test: IL-6 release from PTL-transfected 3T3-LI adipocytes with colipase (luminex); assay type: cell-based; conditions: PTL + colipase 0.25 mcg/mL; orlistat 20 micromolar every 2 hours
Procedure: (§3) Differentiated 3T3-LI adipocytes with lipid droplets were transfected with adenovirus expressing pancreatic triglyceride lipase (PTL) or left as unstimulated controls. The medium was replaced with serum free medium alone or with colipase (0.25 mcg/mL). In some wells the lipase inhibitor orlistat (20 micromolar) was added every 2 hours. Cytokine release was measured as a marker of inflammatory response. IL-6 release into the medium was measured by luminex. There was a significant release of IL-6 only when both colipase and PTL were present. This release was prevented by orlistat (FIG. 6A).

[4] = system: Differentiated 3T3-LI adipocytes; test: MCP-1 release from PTL-transfected 3T3-LI adipocytes with colipase (luminex); assay type: cell-based; conditions: PTL + colipase 0.25 mcg/mL; orlistat 20 micromolar every 2 hours
Procedure: as §3, with “MCP-1” for “IL-6”, “6B).” for “6A).”

[5] = system: rats with lethal pancreatitis; test: Caerulein plus glyceryl trioleate lethal pancreatitis in rats; assay type: in vivo, rat; conditions: orlistat 50 mg/kg
Procedure: Pancreatitis was induced in rats and flow cytometry was performed on white blood cells (WBCs) from peripheral blood.
Rats (100 gm rats) were either given caerulein (20 mcg/kg BID (twice a day) intraperitoneally) to induce pancreatitis or left untreated as control animals. Some rats were also given glyceryl trioleate (3 ml intraperitoneally) to induce lactate dehydrogenase (LDH) leakage. Some rats also received the lipase inhibitor orlistat (50 mg/kg). Blood was collected from rats 2 days after induction of caerulein pancreatitis with or without administration of caerulein, glyceryl trioleate, and/or orlistat.

Rat parotid acini = test: LDH leakage from rat parotid acini exposed to glyceryl trilinoelate, human PTL and human colipase; assay type: cell-based; conditions: glyceryl trilinoelate 300 micromolar + human PTL 1 micrograms/mL + human colipase 0.25 micrograms/mL; orlistat 50 micromolar or serum 1:4 dilution; over 4 hours
Procedure: Cells exposed to glyceryl trilinoelate, PTL, and colipase were treated at a 1:4 dilution with either orlistat (50 micromolar), serum from mice immunized against human colipase, or serum from unimmunized mice. […] (LDH) leakage into the medium was measured over 4 hours.

pancreatic acini = test: Adipocyte induced necrosis in pancreatic acini (co-culture); assay type: cell-based; conditions: inhibitor 50 μM
Procedure: as §1
Co-culture of adipocytes and pancreatic acini induced necrosis in the acini.

| Molecule | Isoproterenol induced lipolysis (glycerol release) (adipocytes) | LDH leakage into the medium (marker of cell injury) ([1]; PTL + colipase 0.25 mcg/mL, orlistat 20 micromolar added every 2 hours) | Glycerol release (marker of lipolysis) [2] | IL-6 release into the medium [3] | MCP-1 release into the medium [4] | Survival ([5]; caerulein + glyceryl trioleate (97% mortality by day 3 without treatment)) | Apoptosis of circulating cells (annexin V positive CD11b) ([5]; caerulein + glyceryl trioleate, blood 2 days after induction) | LDH leakage into the medium (Rat parotid acini) | Adipocyte induced necrosis in pancreatic acini as measured by glycerol release (pancreatic acini) | Adipocyte induced necrosis in pancreatic acini as measured by propidium iodide uptake (pancreatic acini) | LDH leakage compared to controls ([1]; PTL-transfected adipocytes, colipase 0.25 mcg/mL) |
| --- | --- | --- | --- | --- | --- | --- | --- | --- | --- | --- | --- |
| CN(C)C(=O)Nc1cccc(-c2ccc(N(C)C)cc2)c1 [atglistatin] | inhibited | – | – | – | – | – | – | – | – | – | – |
| CCCCCCCCCCC[C@@H](C[C@@H]1OC(=O)[C@H]1CCCCCC)OC(=O)[C@H](CC(C)C)NC=O [orlistat] | but not orlistat, inhibited | completely prevented | prevented | prevented | prevented | survive | prevented | significantly reduced | inhibited | inhibited | – |
| Colipase: colipase polypeptide added to the medium (0.25 mcg/mL) as cofactor of pancreatic lipases (protein, UniProt P04118 23-112, looked up) Colipase: GIIINLENGELCMNSAQCKSNCCQHSSALGLARCTSMASENSECSVKTLYGIYYKCPCERGLTCEGDKTIVGSITNTNFGICHDAGRSKQ | – | – | – | – | – | – | – | – | – | – | 30-40% |
